# Patent US8574831B2, “Mutational profiles in HIV-1 reverse transcriptase correlated with phenotypic drug resistance” (Virco N.V., priority 2000, dated 2013)
# Tested on: HIV with mutations in the HIV protease sequence
# Test: Phenotypic fold resistance to protease inhibitors, protease mutations 84A/84L/84C/54M/54L/54V in a background (Examples 8-13)
# Type: cell-based, HIV-1
# How it was run: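 Fold-resistance equals chimeric-virus IC50 divided by IC50 of a parallel wild-type reference HIV-1 strain. Chimeras come from PCR-amplified PR/RT genes recombined into PR/RT-deleted HXB2 proviral DNA inside CD4+ T cells, then cultured with graded drug concentrations.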
structure (smiles),measurement,setting,value
"CC(C)(C)NC(=O)[C@@H]1C[C@@H]2CCCC[C@@H]2CN1C[C@@H](O)[C@H](Cc1ccccc1)NC(=O)[C@H](CC(N)=O)NC(=O)c1ccc2ccccc2n1 [Saquinavir, saquinavir]",Fold change in IC50,"Table 12, V055199, genotype 10I + 33F + 54M + 90M",5.6 fold
same,Fold change in IC50,"Table 13, V19263, genotype 77I",0.3 fold
same,Fold change in IC50,"Table 13, V20160, genotype WT",0.9 fold
same,Fold change in IC50,"Table 13, V021667, genotype 10I",0.9 fold
same,Fold change in IC50,"Table 13, V030496, genotype 10I + 77I",0.3 fold
same,Fold change in IC50,"Table 13, V048868, genotype 10I + 54L + 71V + 77I + 90M",16.5 fold
same,Fold change in IC50,"Table 13, V048874, genotype 10I + 33F + 54L + 71V + 77I + 90M",4.6 fold
same,Fold change in IC50,"Table 13, V048875, genotype 10I + 33F + 54L + 71V + 77I + 90M",12.0 fold
same,Fold change in IC50,"Table 13, V048877, genotype 10I + 33F + 77I + 90M",1.5 fold
same,Fold change in IC50,"Table 13, V048880, genotype 10I + 33F + 77I + 90M",2.7 fold
same,Fold change in IC50,"Table 13, V052940, genotype 71V",0.8 fold
same,Fold change in IC50,"Table 13, V052942, genotype 10I + 71V",0.8 fold
same,Fold change in IC50,"Table 13, V052943, genotype 10I + 90M",1.1 fold
same,Fold change in IC50,"Table 13, V052944, genotype 10I + 90M",0.7 fold
same,Fold change in IC50,"Table 13, V052945, genotype 77I + 90M",1.4 fold
same,Fold change in IC50,"Table 13, V052946, genotype 71V + 90M",1.4 fold
same,Fold change in IC50,"Table 13, V052947, genotype 10I + 77I + 90M",3.9 fold
same,Fold change in IC50,"Table 13, V052948, genotype 10I + 71V + 90M",4.8 fold
same,Fold change in IC50,"Table 13, V052949, genotype 10I + 71V + 77I + 90M",2.1 fold
same,Fold change in IC50,"Table 13, V052950, genotype 33F",1.2 fold
same,Fold change in IC50,"Table 13, V052951, genotype 33F + 77I",0.4 fold
same,Fold change in IC50,"Table 13, V052953, genotype 10I + 33F + 77I",1.2 fold
same,Fold change in IC50,"Table 13, V052954, genotype 33F + 77I + 90M",1.7 fold
same,Fold change in IC50,"Table 13, V052955, genotype 33F + 71V + 90M",20.4 fold
same,Fold change in IC50,"Table 13, V052968, genotype 10L/I + 33F/L + 54L + 77I",1.5 fold
same,Fold change in IC50,"Table 13, V052969, genotype 10I + 33F + 54L + 90M",1.4 fold
same,Fold change in IC50,"Table 13, V052970, genotype 54L",0.7 fold
same,Fold change in IC50,"Table 13, V052971, genotype 10I + 54L",0.7 fold
same,Fold change in IC50,"Table 13, V052972, genotype 54L + 77I",1.0 fold
same,Fold change in IC50,"Table 13, V052973, genotype 10I + 54L + 77I",0.8 fold
same,Fold change in IC50,"Table 13, V052974, genotype 10I + 54L + 90M",1.1 fold
same,Fold change in IC50,"Table 13, V052975, genotype 10I + 54L + 71V + 90M",24.2 fold
same,Fold change in IC50,"Table 13, V052976, genotype 10I + 54L + 71V + 77I + 90M",1.8 fold
same,Fold change in IC50,"Table 13, V053832, genotype 10I + 33F",0.5 fold
same,Fold change in IC50,"Table 13, V053854, genotype 54L + 71V",0.9 fold
same,Fold change in IC50,"Virco ID 214846, genotype 10I + 33F + 54V + 71V + 77I + 90M, vs mean IC50 of wild type laboratory HIV strain",27.8 fold
same,Fold change in IC50,"Virco ID V021667, genotype 10I, vs mean IC50 of wild type laboratory HIV strain",0.9 fold
same,Fold change in IC50,"Virco ID V030496, genotype 10I + 77I, vs mean IC50 of wild type laboratory HIV strain",0.3 fold
same,Fold change in IC50,"Virco ID V048876, genotype 33F + 54V + 77I + 90M, vs mean IC50 of wild type laboratory HIV strain",1.5 fold
same,Fold change in IC50,"Virco ID V048877, genotype 10I + 33F + 77I + 90M, vs mean IC50 of wild type laboratory HIV strain",1.5 fold
same,Fold change in IC50,"Virco ID V048880, genotype 10I + 33F + 77I + 90M, vs mean IC50 of wild type laboratory HIV strain",2.7 fold
same,Fold change in IC50,"Virco ID V052940, genotype 71V, vs mean IC50 of wild type laboratory HIV strain",0.8 fold
same,Fold change in IC50,"Virco ID V052942, genotype 10I + 71V, vs mean IC50 of wild type laboratory HIV strain",0.8 fold
same,Fold change in IC50,"Virco ID V052943, genotype 10I + 90M, vs mean IC50 of wild type laboratory HIV strain",1.1 fold
same,Fold change in IC50,"Virco ID V052944, genotype 10I + 90M, vs mean IC50 of wild type laboratory HIV strain",0.7 fold
same,Fold change in IC50,"Virco ID V052946, genotype 71V + 90M, vs mean IC50 of wild type laboratory HIV strain",1.4 fold
same,Fold change in IC50,"Virco ID V052947, genotype 10I + 77I + 90M, vs mean IC50 of wild type laboratory HIV strain",3.9 fold
same,Fold change in IC50,"Virco ID V052948, genotype 10I + 71V + 90M, vs mean IC50 of wild type laboratory HIV strain",4.8 fold
same,Fold change in IC50,"Virco ID V052949, genotype 10I + 71V + 77I + 90M, vs mean IC50 of wild type laboratory HIV strain",2.1 fold
same,Fold change in IC50,"Virco ID V052950, genotype 33F, vs mean IC50 of wild type laboratory HIV strain",1.2 fold
same,Fold change in IC50,"Virco ID V052951, genotype 33F + 77I, vs mean IC50 of wild type laboratory HIV strain",0.4 fold
same,Fold change in IC50,"Virco ID V052953, genotype 10I + 33F + 77I, vs mean IC50 of wild type laboratory HIV strain",1.2 fold
same,Fold change in IC50,"Virco ID V052954, genotype 33F + 77I + 90M, vs mean IC50 of wild type laboratory HIV strain",1.7 fold
same,Fold change in IC50,"Virco ID V052955, genotype 33F + 71V + 90M, vs mean IC50 of wild type laboratory HIV strain",20.4 fold
same,Fold change in IC50,"Virco ID V052957, genotype 10I + 33F + 54V + 90M, vs mean IC50 of wild type laboratory HIV strain",1.6 fold
same,Fold change in IC50,"Virco ID V052958, genotype 10I + 33F + 54V + 77I + 90M, vs mean IC50 of wild type laboratory HIV strain",1.0 fold
same,Fold change in IC50,"Virco ID V052959, genotype 10I + 33F + 54V + 77I + 90M, vs mean IC50 of wild type laboratory HIV strain",1.0 fold
same,Fold change in IC50,"Virco ID V052960, genotype 10I + 33F + 54V + 71V + 90M, vs mean IC50 of wild type laboratory HIV strain",21.8 fold
same,Fold change in IC50,"Virco ID V052961, genotype 54V, vs mean IC50 of wild type laboratory HIV strain",1.0 fold
same,Fold change in IC50,"Virco ID V052962, genotype 10I + 54V, vs mean IC50 of wild type laboratory HIV strain",0.9 fold
same,Fold change in IC50,"Virco ID V052963, genotype 54V + 77I + 90M, vs mean IC50 of wild type laboratory HIV strain",1.3 fold
same,Fold change in IC50,"Virco ID V052964, genotype 54V + 71V + 90M, vs mean IC50 of wild type laboratory HIV strain",1.4 fold
same,Fold change in IC50,"Virco ID V052965, genotype 10I + 54V + 77I + 90M, vs mean IC50 of wild type laboratory HIV strain",6.3 fold
same,Fold change in IC50,"Virco ID V052966, genotype 10I + 54V + 71V + 90M, vs mean IC50 of wild type laboratory HIV strain",28.6 fold
same,Fold change in IC50,"Virco ID V052967, genotype 10I + 54V + 71V + 77I + 90M, vs mean IC50 of wild type laboratory HIV strain",0.6 fold
same,Fold change in IC50,"Virco ID V053358, genotype 33F + 54V + 77I + 90M, vs mean IC50 of wild type laboratory HIV strain",1.3 fold
same,Fold change in IC50,"Virco ID V053831, genotype 33F + 54V, vs mean IC50 of wild type laboratory HIV strain",1.0 fold
same,Fold change in IC50,"Virco ID V053832, genotype 10I + 33F, vs mean IC50 of wild type laboratory HIV strain",0.5 fold
